What was measured:
Hu apoAI transgenic mice = assay: Evaluation of triglyceride and cholesterol levels in hu apoAI transgenic mice; format: in vivo; details: 30 mg/kg oral gavage daily for 7 days; serum HDLc FPLC area under the curve, over mice receiving vehicle
Experimental: Five to six week old male mice, transgenic for human apoAI [C57B1/6-tgn(apoa1) 1rub, Jackson Laboratory, Bar Harbor, Me.] were housed five per cage (10″×20″8″ with aspen chip bedding) with food (Purina 5001) and water available at all times. After an acclimation period of 2 weeks, animals were individually identified by ear notches, weighed, and assigned to groups based on body weight. Beginning the following morning, mice were dosed daily by oral gavage for 7 days using a 20 gauge, 1½″ curved disposable feeding needle (Popper & Sons). Treatments were test compounds (30 mg/kg), a positive control (fenofibrate, 100 mg/kg) or vehicle [1% carboxymethylcellulose (w/v)/0.25% Tween80 (w/v); 0.2 ml/mouse]. Prior to termination on day 7, mice were weighed and dosed. Three hours after dosing, animals were anesthetized by inhalation of isoflurane (2–4%; Abbott Laboratories, Chicago, Ill.) and blood obtained via cardiac puncture (0.7–1.0 ml). Whole blood was transferred to serum separator tubes (Vacutainer SST), chilled on ice, and permitted to clot. Serum was obtained after centrifugation at 4° C. and frozen until analysis for triglycerides, total cholesterol, compound levels, and serum lipoprotein profile by fast protein liquid chromatography (FPLC) coupled to an inline detection system. After sacrifice by cervical dislocation, the liver, heart and epididymal fat pads were excised and weighed.
The animals dosed with vehicle had average triglycerides values of 60–80 mg/dl, which were reduced by the positive control fenofibrate (33–58 mg/dl with a mean reduction of 37%). The animals dosed with vehicle had average total serum cholesterol values of 140–180 mg/dl, which were increased by fenofibrate (190–280 mg/dl, with a mean elevation of 41%). […] increased the amount of HDLc (68–96 v-sec with a mean percent increase of 48%).
Glucose was measured colorimetrically using commercially purchased reagents (Sigma #315-500). According to the manufacturers, the procedures were modified from published work (McGowan, M. W., Artiss, J. D., Strandbergh, D. R. & Zak, B. Clin Chem, 20:470–5 (1974) and Keston, A. Specific colorimetric enzymatic analytical reagents for glucose. Abstract of papers 129th Meeting ACS, 31C (1956).); and depend on the release of a mole of hydrogen peroxide for each mole of analyte, coupled with a color reaction first described by Trinder (Trinder, P. Determination of glucose in blood using glucose oxidase with an alternative oxygen acceptor. Ann Clin Biochem, 6:24 (1969)). The absorbance of the dye produced is linearly related to the analyte in the sample. The assays were further modified in our laboratory for use in a 96 well format. Standards (Sigma #339-11, Sigma #16-11, and Sigma #CC0534 for glucose, triglycerides and total cholesterol, respectively), quality control plasma (Sigma # A2034), and samples (2 or 5 μl/well) were measured in duplicate using 200 μl of reagent. An additional aliquot of sample, pipetted to a third well and diluted in 200 μl water, provided a blank for each specimen. Plates were incubated at room temperature (18, 15, and 10 minutes for glucose, triglycerides and total cholesterol, respectively) on a plate shaker (DPC Micormix 5) and absorbance read at 500 nm (glucose and total cholesterol) or 540 nm (triglycerides) on a plate reader (Wallac Victor 1420). Sample absorbances were compared to a standard curve (100–800, 10–500, and 100–400 mg/dl for glucose, triglycerides and total cholesterol, respectively). Values for the quality control sample were always within the expected range and the coefficient of variation for samples was below 10%. All samples from an experiment were assayed at the same time to minimize inter-assay variability.
Serum lipoproteins were separated and cholesterol quantitated with an in-line detection system. Sample was applied to a Superose® 6 HR 10/30 size exclusion column (Amersham Pharmacia Biotech) and eluted with phosphate buffered saline-EDTA at 0.5 ml/min. […]

db/db mice = assay: Evaluation of glucose levels in db/db mice; format: in vivo; details: 30 mg/kg oral gavage daily for 7 days; 100% = glucose not differing from lean values
Experimental: Five week old male diabetic (db/db) mice [C57BlKs/j-m +/+ Lepr(db), Jackson Laboratory, Bar Harbor, Me.] or lean littermates (DB/?) were housed 6 per cage (10″20″8″ with aspen chip bedding) with food (Purina 5015) and water available at all times. After an acclimation period of 2 weeks, animals were individually identified by ear notches, weighed, and bled via the tail vein for determination of initial glucose levels. Blood was collected (100 μl) from unfasted animals by wrapping each mouse in a towel, cutting the tip of the tail with a scalpel, and milking blood from the tail into a heparinized capillary tube (Fisher) balanced on the edge of the bench. Sample was discharged into a heparinized microtainer with gel separator (VWR) and retained on ice. Plasma was obtained after centrifugation at 4° C. and glucose measured immediately. Remaining plasma was frozen until the completion of the experiment, when glucose and triglycerides were assayed in all samples. […]
Glucose was measured colorimetrically using commercially purchased reagents (Sigma #315-500). […] The absorbance of the dye produced is linearly related to the analyte in the sample. […] Standards (Sigma #339-11, Sigma #16-11, and Sigma #CC0534 for glucose, triglycerides and total cholesterol, respectively), quality control plasma (Sigma # A2034), and samples (2 or 5 μl/well) were measured in duplicate using 200 μl of reagent. […]

Which “% HDLc Increase” value (Hu apoAI transgenic mice) does the source give for Cc1oc(-c2cccc(-c3cccs3)c2)nc1CCOc1ccc(CC(C)(Oc2ccccc2)C(=O)O)cc1 (centres unmarked) [Example 5, 2-Methyl-3-(4-{2-[5-methyl-2-(3-thiophen-2-ylphenyl)oxazol-4-yl]ethoxy}phenyl)-2-phenoxypropionic acid] here?
Its value is 94.5%.

What about the “Glucose Normalisation” value (db/db mice) of the same molecule?
The value was 71%.

From US7176224B2, “Oxazolyl-aryloxyacetic acid derivatives and their use as PPAR agonists” (Eli Lilly and Company, priority 2000, dated 2007)
